One data set deals with H460. The data set can be described thus: Monolayer cell culture IC50 (CellTiter-Glo viability), H460. It is filed as cell-based. The following applies: Lung, 72 hours treatment, average of three replications. The procedure:
Cancer cell lines listed in Table 1 were subjected for testing anti-cancer potency or the half maximal inhibitory concentration (IC50) of the D-Actinomycin (DACT) molecular complexes.
The SK-ES-1, U-2 OS, and SAOS-2 cells were cultured in a growth medium that is ATCC-formulated McCoy's 5a Medium Modified, Catalog No. 30-2007. The PC-3, PANC-1, SK-Mel-5, A549, H460, and H1299 were cultured in a growth medium that is ATCC-formulated Dulbecco's Modified Eagle's Medium (DMEM), Catalog No. 30-2002. The cells were seeded on 96-well microtiter plates with 3500 cells per well and cultured in an incubator (Model 3120, Thermo Scientific, USA) with a constant temperature at 37° C. and 5% carbon dioxide (CO2) gas for 24 hours.
The new DACT-molecular complexes were made into a series with concentration of 200 nM to 40 nM, 8 nM, 1.6 nM, 0.32 nM, and 0.064 nM. 100 μl of each solution was then added into each well to bring out the final concentration of the drug treatment at 100 nM, 20 nM, 4 nM, 0.8 nM, 0.16 nM, or 0.032 nM, respectively.
The treated cells in the 96 well plate was then further cultured at the same conditions for 72 hours and then subjected for a final cell viability measurement. The measurement used a homogeneous method to determine the number of metabolically active cells presented in each of treatments. A testing reagent for the measurement is a mixture solution of the CellTiter-Glo® 2.0 reagent (CTG, Promega Cat #G9243, USA) and growth medium in 1:1 ratio in this respect.
The 96-well plate with the new molecular complex treated cells was taken out from incubator after the 72 hours of incubation, and the treatment solution in each well was removed using a multichannel pipette, and 100 μl of the testing reagent were added into each well. The plate was then placed on a plate shaker for 15 min. The plate was covered with a piece of aluminum foil to protect the CTG luminescence during the shaking time.
Then 90 μl of the 100 μl testing reagent were transferred into an opaque-walled 96-well plate for the CTG luminescence reading on a plate reader (SynergyH4 Hybrid Reader, Biotek, USA). The luminescence intensity of each treatment was positively correlated with the number of cells survived during the treatments.
All the treatment data was normalized by comparing with the control samples that had only growth medium without any molecular complexes. The half maximal inhibitory concentration (IC50) data was calculated using the nonlinear regression model and dose-responses (inhibition) curve built in the software. Each of treatments was performed in three replications each time and repeated three times for validation. The IC50 average […] (Avg) and standard deviation (STDV) were calculated based on the three replications.
For orientation: ATP-based viability assays read luminescence as a measure of living cells.

The nature of data set [1]: Accelerated stability studies (PXRD physical form stability). It is filed as physicochemical. The following applies: accelerated conditions 75% humidity and 40° C., one year, by PXRD. The procedure:
Stability studies of the DACT novel forms were conducted using accelerated conditions (75% humidity and 40° C.) of which are obvious to the artisan in the field, for more than one year. […] Selected data of the novel complexes of DACT:methylparaben, propylparaben and diphenic acid proves this point.

Data set [2] deals with human sarcoma cell line SK-ES-1. Put plainly: Tumor sphere formation assay. The class given is cell-based. The text has this:
Cancer stem cells (CSCs) are defined as a small subset of cells within a tumor with the ability to self-renew and often drive tumor progression and recurrence after chemotherapy treatment (Xiaochen Zhou, et al. 2015. A Reliable Parameter to Standardize the Scoring of Stem Cell Spheres. PLOS One 10(5); e0127348). It is important to study the responses of cancer stem cells or the tumors treated with the new molecular complexes. We have assessed cancer stem cells (CSCs) growth using tumor sphere formation assay, which involves culturing cancer cells in low attachment plates in serum free media. Sphere size and diameter was measured using Image) software and statistical analysis was performed using Graph Pad Prism Software.
The stem cell culture medium is prepared for 500 ml (250 ml of Dulbecco's Modified Eagle Medium (DMEM) (ATCC® 30-2002) plus 250 ml of F-12K medium (ATCC® 30-2004)) using 20 ng/ml epidermal growth factor, 10 ng/ml basic fibroblast growth factor, 5 μg/ml insulin and 0.4% Bovine Serum Albumin. All preparation methods known to the person skilled in the art.
The cancer cell line used in this study was human sarcoma cell line SK-ES-1. The cells were seeded in a density of 200 per well per 200 μl in a 96-well Ultra-Low Attachment plate (Corning, Cat #3474, USA), this plate is specially treated for stem cell growth or tumor culture. On the day 1 of seeding, 100 μl of cell solution was added into the plate. […]
On the day 6 of seeding, 10 μl of NucBlue Live Cell Stain ReadyProbes (Invitrogen Cat #R37605, USA) were added into each well for staining to visualize the live cells under the blue fluorescent light. […] Then the plate was brought to the Keyence imaging device (Keyence America, All-in-One Fluorescence Microscope BZ-X800, USA) for image scanning. […]
The sum of sphere image area of every individual sphere, with diameter over 50 μm, in each well was calculated. […] The sphere image area was calculated based on the sum area of spheres with diameter over 50 μm in each treatment well, and significance was declared at P<0.05 for the bars indicated by *, and P<0.001 by **. […]

Like-named read-outs stand apart in the source and are kept apart here.

This note sets out measurements from US11319311B2, “Crystalline forms of Actinomycin D for treatment of cancer” (TRANSGENEX NANOBIOTECH, INC., priority 2018, dated 2022).

Broadly, the IC50 is the concentration needed to halve the response being measured. Take `CCCOC(=O)c1ccc(O)cc1.Cc1c2oc3c(C)ccc(C(=O)NC4C(=O)NC(C(C)C)C(=O)N5CCCC5C(=O)N(C)CC(=O)N(C)C(C(C)C)C(=O)OC4C)c3nc-2c(C(=O)NC2C(=O)NC(C(C)C)C(=O)N3CCCC3C(=O)N(C)CC(=O)N(C)C(C(C)C)C(=O)OC2C)c(N)c1=O` (stereo not shown) [DACT-propylparaben]: the IC50 in the data set with H460 (Test I, read-out: IC50 Test (I) Avg) worked out at 0.21 nM; in the data set with H460 (Test II, read-out: IC50 Test (II) Avg) it was 0.3 nM; in the data set on H460 (Test III, read-out: IC50 Test (III) Avg), 0.15 nM. Also, the physical form stability entry in data set [1] is recorded as “stable”. Also, in data set [2] (SK-ES-1 spheres with diameter over 50 μm, day 6 of seeding, compared with pure parent molecule DACT), the sphere area result was “noticeable reduction in sphere area”. Besides, the “tumor spheres size (SSS)” value in data set [2] (compared with that of the parent molecule) is “reduced tumor spheres size (SSS)”. The “tumor sphere formation efficiency (SFE)” value in data set [2] (compared with the parent molecule) is listed as “reduced tumor sphere formation efficiency (SFE)”.
